Like-named read-outs stand apart in the source and are kept apart here.
Experiments:
[1] = test system: MCF-7 (ER+) cells; experiment: Antiproliferative assay, MCF-7; assay type: cell-based; conditions: for IC50: read-out: MCF-7 IC50
[2] = test system: MDA-MB-231 (ER-) cells; experiment: Antiproliferative assay, MDA-MB-231; assay type: cell-based
[3] = molecular target: T1, Recombinant Human Aromatase (HA) (Homo sapiens, UniProt P11511); experiment: HA inhibition assay (Aromatase Inhibitor Screening Kit, fluorogenic substrate); assay type: biochemical; conditions: for Ki: values inside parenthesis, unit inferred, read-out: HA (Ki), inhibition constant (converted)
T1 sequence (P11511 1-503): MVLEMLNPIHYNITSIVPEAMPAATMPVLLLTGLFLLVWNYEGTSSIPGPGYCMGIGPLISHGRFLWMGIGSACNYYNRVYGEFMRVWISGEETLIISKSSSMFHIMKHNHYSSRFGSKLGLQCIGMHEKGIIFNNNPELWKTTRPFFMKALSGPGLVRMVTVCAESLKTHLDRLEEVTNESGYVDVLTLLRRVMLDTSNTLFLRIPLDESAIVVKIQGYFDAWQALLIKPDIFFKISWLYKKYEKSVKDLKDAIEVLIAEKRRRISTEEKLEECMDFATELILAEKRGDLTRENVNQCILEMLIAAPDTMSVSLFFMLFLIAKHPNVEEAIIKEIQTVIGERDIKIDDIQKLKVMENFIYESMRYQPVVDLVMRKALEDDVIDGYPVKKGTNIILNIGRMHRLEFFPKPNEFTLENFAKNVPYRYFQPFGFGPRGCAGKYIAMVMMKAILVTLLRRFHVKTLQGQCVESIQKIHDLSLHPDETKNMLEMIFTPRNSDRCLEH

[4] = Homo sapiens, MCF7, 72 h, 72 h, with 10 µM testosterone undecanoate
[5] = Homo sapiens, MDA-MB-231, 72 h, 72 h; read-out: MDA-MB-231 IC50
[6] = tested at 200-0.1 µM, triplicate, read-out: HA IC50
[7] = Homo sapiens, MDA-MB-231, 72 h, read-out: MDA-MB-231 IC50
[8] = kinetic experiments at varied substrate concentration

SMILES | IC50 [1, 4] [µM] | IC50 [2, 5] [µM] | HA inhibitory activity (in words) [3] | IC50 [3, 6] [µM] | also measured
O=c1cc(-c2ccccc2)oc2cc(O)cc(O)c12 [Chrysin] | 7.8 ± 2.8 | 65 ± 2.3 |  |  | 
CC1=CC(=O)CC(C)(C)[C@@]1(O)/C=C/C(C)=C\C(=O)O [Abscisic acid] |  |  | inactive | > 100 | Activity against MCF-7 (in words) [1]: inactive; IC50 ([1]; Homo sapiens, MCF7, 72 h): > 100 µM; Activity against MDA-MB-231 (in words) [2]: inactive; IC50 [2, 7]: > 100 µM
C[C@@H]1O[C@@H](OC[C@H]2O[C@@H](Oc3c(-c4ccc(O)c(O)c4)oc4cc(O)cc(O)c4c3=O)[C@H](O)[C@@H](O)[C@@H]2O)[C@H](O)[C@H](O)[C@H]1O [Rutin] | > 100 | > 100 | inactive | > 100 | Activity against MCF-7 (in words) [1]: inactive; Activity against MDA-MB-231 (in words) [2]: inactive
Cc1coc2c1C(=O)C(=O)c1c-2ccc2c1CCCC2(C)C [Tanshinone IIA] | ~2.1 | ~2.1 |  | 42.5 ± 1.2 | Mode of inhibition [3, 8]: Non-competitive; Ki [3]: 40.9 µM; IC50 ([1]; 72 h, with 10 µM testosterone undecanoate): 1.4 ± 1.3 µM; IC50 ([2]; 72 h; read-out: MDA-MB-231 IC50): 3.7 ± 1.7 µM
O=c1cc(-c2ccc(O)cc2)oc2cc(O)cc(O)c12 [Apigenin] |  |  |  |  | IC50 ([1]; Homo sapiens, MCF7, 72 h): 13.6 ± 3.5 µM; IC50 [2, 7]: 60 ± 1.6 µM
C=C(C)[C@@H]1CC[C@]2(CO)CC[C@]3(C)[C@H](CC[C@@H]4[C@@]5(C)CC[C@H](O)C(C)(C)[C@@H]5CC[C@]43C)[C@@H]12 [Betulin] |  |  | very weak inhibitory activity |  | IC50 [3]: 95.3 µM; Mode of inhibition [3]: Non-competitive; Activity against MCF-7 (in words) [1]: very weak inhibitory activity; IC50 ([1]; Homo sapiens, MCF7, 72 h): 67 ± 2.6 µM; Activity against MDA-MB-231 (in words) [2]: very weak inhibitory activity; IC50 ([2]; Homo sapiens, MDA-MB-231, 72 h; read-out: MDA-MB-231 IC50): > 100 µM
Oc1ccc(/C=C/c2cc(O)cc(O)c2)cc1 [Resveratrol] | 11 ± 2.2 | 38 ± 3.5 |  |  | 
COc1ccc2cc3[n+](cc2c1OC)CCc1cc2c(cc1-3)OCO2 [Berberine] | 10.2 ± 2.6 | > 100 |  | 21.4 ± 0.9 | Mode of inhibition [3, 8]: Non-competitive; Mode of inhibition ([3]; kinetic experiments at varied substrate concentration, listed as berberine): non-competitive inhibition; Ki [3]: 20.1 µM
CC(C)=CCc1c2c(c3occ(-c4ccc(O)c(O)c4)c(=O)c3c1O)C=CC(C)(C)O2 [Pomiferin] | 5.4 ± 2.2 | 30.9 ± 3.1 |  | 15.1 ± 0.5 | Mode of inhibition [3, 8]: Non-competitive; Mode of inhibition ([3]; kinetic experiments at varied substrate concentration, listed as pomiferin): non-competitive inhibition; Ki [3]: 14.8 µM
N#Cc1ccc(C(c2ccc(C#N)cc2)n2cncn2)cc1 [Letrozole, reference compound] | 5.6 ± 1.1 | 41.3 ± 2.1 |  |  | 
COc1ccc(-c2cc(=O)c3c(OC)c(OC)c(OC)c(OC)c3o2)cc1 [Tangeretin] | 30.3 ± 2.1 | 45.6 ± 3.8 | inactive | > 100 | 
